Test [1] deals with T1, Alpha-1A adrenergic receptor (Homo sapiens, UniProt P35348).
T1 sequence (P35348 whole entry): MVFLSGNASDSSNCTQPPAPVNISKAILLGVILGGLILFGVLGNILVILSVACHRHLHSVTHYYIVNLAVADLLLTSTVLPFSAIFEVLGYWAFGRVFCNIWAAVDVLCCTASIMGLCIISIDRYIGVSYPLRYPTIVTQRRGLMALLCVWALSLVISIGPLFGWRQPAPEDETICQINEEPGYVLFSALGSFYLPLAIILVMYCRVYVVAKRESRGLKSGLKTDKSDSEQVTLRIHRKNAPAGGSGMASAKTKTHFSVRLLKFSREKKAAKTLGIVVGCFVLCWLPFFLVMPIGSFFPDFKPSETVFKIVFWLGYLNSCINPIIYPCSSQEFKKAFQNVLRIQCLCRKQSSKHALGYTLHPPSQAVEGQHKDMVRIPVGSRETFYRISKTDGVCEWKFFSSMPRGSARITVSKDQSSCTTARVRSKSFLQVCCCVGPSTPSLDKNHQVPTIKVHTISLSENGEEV

Another test has as its target Adenosine receptor A2a (Homo sapiens, UniProt P29274).
In test [2] the target is T2, Amine oxidase [flavin-containing] A (Homo sapiens, UniProt P21397).
T2 sequence (P21397 whole entry): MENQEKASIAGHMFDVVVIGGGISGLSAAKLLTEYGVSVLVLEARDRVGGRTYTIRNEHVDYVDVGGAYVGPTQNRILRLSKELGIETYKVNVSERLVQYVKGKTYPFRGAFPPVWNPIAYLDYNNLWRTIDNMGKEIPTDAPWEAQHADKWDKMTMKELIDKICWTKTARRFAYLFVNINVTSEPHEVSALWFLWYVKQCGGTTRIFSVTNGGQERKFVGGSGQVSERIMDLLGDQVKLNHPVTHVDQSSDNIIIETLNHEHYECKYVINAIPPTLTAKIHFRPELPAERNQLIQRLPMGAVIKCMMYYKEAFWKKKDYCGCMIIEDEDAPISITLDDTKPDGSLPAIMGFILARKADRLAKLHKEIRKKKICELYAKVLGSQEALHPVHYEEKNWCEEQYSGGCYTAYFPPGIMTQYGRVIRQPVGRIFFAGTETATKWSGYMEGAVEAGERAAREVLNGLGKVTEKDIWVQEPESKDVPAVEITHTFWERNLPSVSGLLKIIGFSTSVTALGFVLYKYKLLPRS
The test is classed as functional.

Test [3] addresses T3, 5-hydroxytryptamine receptor 1A (Homo sapiens, UniProt P08908).
T3 sequence (P08908 whole entry): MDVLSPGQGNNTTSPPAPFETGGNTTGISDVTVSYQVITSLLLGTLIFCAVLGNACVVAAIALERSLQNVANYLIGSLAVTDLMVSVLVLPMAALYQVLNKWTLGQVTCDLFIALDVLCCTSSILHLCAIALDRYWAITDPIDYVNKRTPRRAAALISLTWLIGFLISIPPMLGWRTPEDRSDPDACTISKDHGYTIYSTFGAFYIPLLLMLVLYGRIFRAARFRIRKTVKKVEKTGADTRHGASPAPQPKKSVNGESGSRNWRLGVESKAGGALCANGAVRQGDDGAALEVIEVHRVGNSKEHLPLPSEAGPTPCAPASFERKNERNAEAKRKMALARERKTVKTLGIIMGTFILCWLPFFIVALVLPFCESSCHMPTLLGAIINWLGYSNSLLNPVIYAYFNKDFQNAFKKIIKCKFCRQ
The test is classed as functional, cell-based.

The target of test [4] is T4, Alpha-2C adrenergic receptor (Homo sapiens, UniProt P18825).
T4 sequence (P18825 whole entry): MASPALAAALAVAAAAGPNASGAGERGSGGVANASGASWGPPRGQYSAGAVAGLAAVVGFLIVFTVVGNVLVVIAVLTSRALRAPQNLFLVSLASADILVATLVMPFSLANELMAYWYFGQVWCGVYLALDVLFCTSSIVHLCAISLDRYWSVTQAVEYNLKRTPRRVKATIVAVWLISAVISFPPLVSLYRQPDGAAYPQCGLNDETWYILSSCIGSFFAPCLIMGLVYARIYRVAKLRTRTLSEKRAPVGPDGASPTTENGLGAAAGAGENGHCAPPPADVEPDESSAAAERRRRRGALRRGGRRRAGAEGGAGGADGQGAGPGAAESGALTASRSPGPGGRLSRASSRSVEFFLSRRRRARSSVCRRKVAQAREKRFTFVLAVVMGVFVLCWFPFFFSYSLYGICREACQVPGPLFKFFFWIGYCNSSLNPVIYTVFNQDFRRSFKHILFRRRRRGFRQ
The class given is functional.

The target of another test is T5, Adenosine receptor A3 (Homo sapiens, UniProt P0DMS8).
T5 sequence (P0DMS8 whole entry): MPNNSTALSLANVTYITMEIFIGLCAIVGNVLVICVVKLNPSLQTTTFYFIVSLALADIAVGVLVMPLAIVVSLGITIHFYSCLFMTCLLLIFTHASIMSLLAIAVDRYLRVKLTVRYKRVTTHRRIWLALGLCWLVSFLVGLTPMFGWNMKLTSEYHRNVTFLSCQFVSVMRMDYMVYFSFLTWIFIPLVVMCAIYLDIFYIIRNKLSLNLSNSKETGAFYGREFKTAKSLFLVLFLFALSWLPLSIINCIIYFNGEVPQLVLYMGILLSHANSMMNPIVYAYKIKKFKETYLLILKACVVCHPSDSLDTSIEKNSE

The target of the next test is Melanocortin receptor 3 (Homo sapiens, UniProt P41968).
In test [5] the target is T6, Cholecystokinin receptor type A (Homo sapiens, UniProt P32238).
T6 sequence (P32238 whole entry): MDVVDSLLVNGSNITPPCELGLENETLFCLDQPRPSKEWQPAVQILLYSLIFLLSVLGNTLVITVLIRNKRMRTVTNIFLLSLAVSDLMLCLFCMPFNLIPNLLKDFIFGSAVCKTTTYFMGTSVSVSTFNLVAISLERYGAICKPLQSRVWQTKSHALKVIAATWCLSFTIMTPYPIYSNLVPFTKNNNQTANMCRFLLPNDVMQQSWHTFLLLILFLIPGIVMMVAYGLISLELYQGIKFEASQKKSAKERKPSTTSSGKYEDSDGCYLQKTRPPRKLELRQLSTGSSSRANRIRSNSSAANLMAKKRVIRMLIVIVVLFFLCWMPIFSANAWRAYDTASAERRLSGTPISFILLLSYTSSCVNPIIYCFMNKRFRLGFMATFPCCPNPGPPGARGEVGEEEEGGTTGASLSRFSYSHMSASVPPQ

For the next test, the target named is Cannabinoid receptor 1 (Homo sapiens, UniProt P21554). The test is classed as functional, cell-based.
The target of test [6] is Muscarinic acetylcholine receptor M3 (Homo sapiens, UniProt P20309).
Test [7] addresses 5-hydroxytryptamine receptor 2A (Homo sapiens, UniProt P28223). The test is classed as functional, cell-based.

One may read the AC50 as the midpoint of the concentration-response curve, whichever way the signal moves.
Note: assay procedure not described here.

Chain of Muscarinic acetylcholine receptor M3 (P20309 whole entry): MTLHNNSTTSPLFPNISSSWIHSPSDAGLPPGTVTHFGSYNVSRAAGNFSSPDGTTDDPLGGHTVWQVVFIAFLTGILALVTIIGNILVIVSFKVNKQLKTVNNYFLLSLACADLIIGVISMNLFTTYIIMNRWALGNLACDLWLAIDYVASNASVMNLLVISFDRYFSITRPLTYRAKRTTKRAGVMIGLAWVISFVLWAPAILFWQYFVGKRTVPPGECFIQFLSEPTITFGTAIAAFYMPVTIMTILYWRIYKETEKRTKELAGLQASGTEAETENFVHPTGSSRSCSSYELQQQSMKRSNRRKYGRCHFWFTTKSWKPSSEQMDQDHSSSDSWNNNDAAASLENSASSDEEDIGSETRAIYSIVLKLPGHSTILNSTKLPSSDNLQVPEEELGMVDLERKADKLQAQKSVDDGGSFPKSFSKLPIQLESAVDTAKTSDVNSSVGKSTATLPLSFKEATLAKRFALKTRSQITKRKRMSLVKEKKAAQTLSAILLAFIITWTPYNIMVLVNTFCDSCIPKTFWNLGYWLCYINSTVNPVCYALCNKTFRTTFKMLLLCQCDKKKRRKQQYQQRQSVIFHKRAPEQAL
Chain of Adenosine receptor A2a (P29274 whole entry): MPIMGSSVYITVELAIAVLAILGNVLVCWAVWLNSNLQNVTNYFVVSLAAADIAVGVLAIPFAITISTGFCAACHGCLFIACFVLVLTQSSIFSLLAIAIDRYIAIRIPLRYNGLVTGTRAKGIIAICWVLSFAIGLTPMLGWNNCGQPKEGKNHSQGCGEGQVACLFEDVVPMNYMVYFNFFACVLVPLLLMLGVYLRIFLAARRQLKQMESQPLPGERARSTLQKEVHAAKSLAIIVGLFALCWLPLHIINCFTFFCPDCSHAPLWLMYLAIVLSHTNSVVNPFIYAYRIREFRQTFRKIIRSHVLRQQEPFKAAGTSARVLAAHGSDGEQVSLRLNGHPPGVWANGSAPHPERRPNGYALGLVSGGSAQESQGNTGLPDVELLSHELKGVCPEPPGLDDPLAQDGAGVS
Chain of Cannabinoid receptor 1 (P21554 whole entry): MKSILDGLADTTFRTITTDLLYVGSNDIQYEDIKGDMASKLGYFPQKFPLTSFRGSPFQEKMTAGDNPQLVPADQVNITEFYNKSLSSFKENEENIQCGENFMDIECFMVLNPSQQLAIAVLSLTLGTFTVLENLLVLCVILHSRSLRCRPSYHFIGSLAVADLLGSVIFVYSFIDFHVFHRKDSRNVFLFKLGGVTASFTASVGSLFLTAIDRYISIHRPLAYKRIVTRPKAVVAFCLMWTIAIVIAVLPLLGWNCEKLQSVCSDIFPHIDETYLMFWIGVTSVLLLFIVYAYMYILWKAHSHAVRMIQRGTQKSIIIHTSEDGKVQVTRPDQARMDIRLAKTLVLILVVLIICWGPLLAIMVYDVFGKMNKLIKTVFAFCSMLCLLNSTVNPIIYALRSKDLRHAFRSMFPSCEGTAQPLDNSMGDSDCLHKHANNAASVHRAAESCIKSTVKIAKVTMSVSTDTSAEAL
Chain of 5-hydroxytryptamine receptor 2A (P28223 whole entry): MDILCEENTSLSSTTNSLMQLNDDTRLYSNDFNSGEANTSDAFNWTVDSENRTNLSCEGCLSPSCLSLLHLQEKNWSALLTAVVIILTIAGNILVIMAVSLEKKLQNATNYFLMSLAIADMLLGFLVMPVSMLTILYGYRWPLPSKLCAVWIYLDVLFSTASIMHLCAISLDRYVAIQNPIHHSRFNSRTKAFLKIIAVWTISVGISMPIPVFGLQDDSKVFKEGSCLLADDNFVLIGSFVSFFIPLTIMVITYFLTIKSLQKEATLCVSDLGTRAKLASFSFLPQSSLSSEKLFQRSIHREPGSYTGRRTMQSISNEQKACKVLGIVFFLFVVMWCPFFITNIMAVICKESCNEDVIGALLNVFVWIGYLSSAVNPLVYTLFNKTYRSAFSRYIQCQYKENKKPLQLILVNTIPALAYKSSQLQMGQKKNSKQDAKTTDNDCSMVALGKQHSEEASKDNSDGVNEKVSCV
Chain of Melanocortin receptor 3 (P41968 whole entry): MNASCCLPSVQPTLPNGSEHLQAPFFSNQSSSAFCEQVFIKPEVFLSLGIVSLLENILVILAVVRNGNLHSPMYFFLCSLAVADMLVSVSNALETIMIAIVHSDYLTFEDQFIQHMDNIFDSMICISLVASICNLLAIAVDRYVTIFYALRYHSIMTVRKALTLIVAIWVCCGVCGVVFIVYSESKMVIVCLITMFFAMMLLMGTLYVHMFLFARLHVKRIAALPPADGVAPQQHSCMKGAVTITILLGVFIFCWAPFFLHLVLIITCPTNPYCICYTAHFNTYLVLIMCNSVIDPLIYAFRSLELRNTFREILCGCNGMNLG

As to `CN(Cc1ccc(C(C)(C)C)cc1)Cc1cccc2ccccc12` [BUTENAFINE], the AC50 (in [1]; at Adenosine receptor A2a; in test [2]; in test [3]; in test [4]; at Adenosine receptor A3) was greater than 10 µM throughout. The concentration at half-maximal activity (AC50) (on Melanocortin receptor 3; in test [5]) was greater than 10 µM each time.
Take `O=C1CN=C(c2ccccc2Cl)c2cc([N+](=O)[O-])ccc2N1` [CLONAZEPAM]: the AC50 was 11.9 µM in test [1]; greater than 30 µM on Adenosine receptor A2a; greater than 10 µM in test [2]; greater than 10 µM in [3]; greater than 10 µM in [4]; greater than 30 µM on Adenosine receptor A3. The half-maximal activity concentration (AC50) (at Melanocortin receptor 3; in test [5]) was greater than 30 µM in each case.
With `CC1CC(OC(=O)C(O)c2ccccc2)CC(C)(C)C1` (configuration not stated) [CYCLANDELATE], the AC50 (in test [1]; at Adenosine receptor A2a; in test [2]; in test [3]; in test [4]; on Adenosine receptor A3) was greater than 10 µM in each case. In addition, the AC50 (on Melanocortin receptor 3; in test [5]) was greater than 10 µM in each case.
Consider `OCCN(CCO)c1nc(N2CCCCC2)c2nc(N(CCO)CCO)nc(N3CCCCC3)c2n1` [DIPYRIDAMOLE], for which the AC50 was greater than 30 µM in [1]; greater than 30 µM at Adenosine receptor A2a; greater than 30 µM in test [2]; greater than 10 µM in test [3]; greater than 30 µM in test [4]; 24.7 µM at Adenosine receptor A3. For the same molecule, the concentration at half-maximal activity (AC50) (at Melanocortin receptor 3; in test [5]) was greater than 30 µM in each case.
Consider `CCc1ccc(C(=O)C(C)CN2CCCCC2)cc1` (configuration not stated) [EPERISONE], for which the AC50 in [1] was greater than 30 µM; at Adenosine receptor A2a, greater than 30 µM; in test [2], greater than 30 µM; in test [4], 2.09 µM; at Adenosine receptor A3 it was greater than 30 µM; at Melanocortin receptor 3, greater than 30 µM. In test [5], this molecule registered an AC50 greater than 30 µM.
Regarding `CCC1(C)CC(=O)NC1=O` (configuration not stated) [ETHOSUXIMIDE], the AC50 in test [1] was greater than 30 µM; at Adenosine receptor A2a it was greater than 10 µM; in test [2], greater than 10 µM; in test [3], greater than 10 µM; in [4] it was greater than 10 µM; on Adenosine receptor A3 it was greater than 10 µM. Also, the AC50 (on Melanocortin receptor 3; in test [5]) was greater than 10 µM throughout.
With `Nc1cc(N2CCCCC2)nc(N)[n+]1[O-]` [MINOXIDIL], the AC50 in test [1] is greater than 10 µM; at Adenosine receptor A2a, greater than 30 µM; in test [2], greater than 10 µM; in test [4], greater than 10 µM; at Adenosine receptor A3, greater than 30 µM; on Melanocortin receptor 3, greater than 30 µM. In test [5], this molecule returned an AC50 greater than 30 µM.
Turning to `CN1CCCN=C1/C=C/c1cccc(O)c1` [OXANTEL], the AC50 on Cannabinoid receptor 1 was greater than 30 µM; at Adenosine receptor A2a, greater than 30 µM; in test [2], 21 µM; in test [3], greater than 30 µM; in [6], greater than 30 µM; in test [4] it was greater than 30 µM. For the same molecule, the half-maximal activity concentration (AC50) at Adenosine receptor A3 was 22 µM; at Melanocortin receptor 3 it was greater than 30 µM; in test [7] it was greater than 30 µM; in [5] it was greater than 30 µM.
For `Nc1ccc(S(=O)(=O)Nc2ncccn2)cc1` [SULFADIAZINE], the AC50 (in test [1]; at Adenosine receptor A2a; in test [2]; in test [3]; in [4]; at Adenosine receptor A3) was greater than 10 µM throughout. For the same molecule, the AC50 (on Melanocortin receptor 3; in test [5]) was greater than 10 µM in each case.
With `CS(=O)(=O)NC(=O)CCC/C=C\C[C@H]1C(=O)C[C@@H](O)[C@@H]1/C=C/[C@@H](O)COc1ccccc1` [SULPROSTONE], the AC50 (on Cannabinoid receptor 1; on Adenosine receptor A2a; in test [2]; in test [3]; in [6]; in test [4]) was greater than 30 µM each time. Moreover, the concentration at half-maximal activity (AC50) (at Adenosine receptor A3; on Melanocortin receptor 3; in test [7]; in test [5]) was greater than 30 µM in each case.
Take `CCCCC[C@H](O)CC[C@@H]1[C@H]2Cc3cccc(OCC(=O)O)c3C[C@H]2C[C@H]1O` [TREPROSTINIL]: the AC50 (on Cannabinoid receptor 1; at Adenosine receptor A2a; in [2]; in test [3]; in test [6]; in test [4]) was greater than 30 µM throughout. For the same molecule, the AC50 (at Adenosine receptor A3; at Melanocortin receptor 3; in [7]; in test [5]) was greater than 30 µM throughout.
`CCCCCCCC(=O)CC[C@@H]1[C@@H](C/C=C\CCCC(=O)O)[C@@H](O)C[C@H]1O` [UNOPROSTONE]: the AC50 (on Cannabinoid receptor 1; on Adenosine receptor A2a; in test [2]; in [3]; in [6]; in test [4]) was greater than 30 µM in each case. Further, the AC50 (at Adenosine receptor A3; at Melanocortin receptor 3; in test [7]; in [5]) was greater than 30 µM throughout.
SITOSTEROLS: the AC50 (on Cannabinoid receptor 1; on Adenosine receptor A2a; in [2]; in [3]; in test [6]; in test [4]) was greater than 30 µM in each case. The AC50 (on Adenosine receptor A3; at Melanocortin receptor 3; in test [7]; in test [5]) was greater than 30 µM throughout.

The values above are taken from ChEMBL document CHEMBL5291721, “A preclinical secondary pharmacology resource illuminates target-adverse drug reaction associations of marketed drugs” (Nat Commun, 2023).
